Consider 6 compounds from US12692269B2, “Therapeutic compounds” (Genentech, Inc., priority 2019, dated 2026).

Usually EC50 stands for the concentration that produces a half-maximal response.

Holding throughout (format): binding
For test [1], the target named is TEAD1 YAP50-100 (Homo sapiens, UniProt P28347). Put plainly: TEAD1-YAP HTRF (TR-FRET) protein-protein interaction assay. To be noted: TEAD1, YAP peptide 50-100, HTRF; for EC50: read-out: TEAD1 YAP50-100 HTRF combined: EC50. An outline of the steps:
(§1)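 His-tagged TEAD YAP-binding domain (aa 217-447) pre-bound to Eu anti-His tracer, incubated with compound 30 min, then biotinylated YAP (aa 50-100) or TAZ (aa 13-57) peptide with streptavidin-XL665 added for 60 min at room temperature. TR-FRET read at 665/615 nm; IC50 or EC50 from four-parameter fit.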
For orientation: TR-FRET usually uses a lanthanide donor and a delayed reading to cut background.

In test [2] the target is TEAD2 YAP50-100 (Homo sapiens, UniProt Q15562). Put plainly: TEAD2-YAP HTRF (TR-FRET) protein-protein interaction assay. As to conditions: TEAD2, YAP peptide 50-100, HTRF; for EC50: read-out: TEAD2 YAP50-100 HTRF combined: EC50. An outline of the steps: as §1
Sequence of TEAD2 YAP50-100 (Q15562 217-447): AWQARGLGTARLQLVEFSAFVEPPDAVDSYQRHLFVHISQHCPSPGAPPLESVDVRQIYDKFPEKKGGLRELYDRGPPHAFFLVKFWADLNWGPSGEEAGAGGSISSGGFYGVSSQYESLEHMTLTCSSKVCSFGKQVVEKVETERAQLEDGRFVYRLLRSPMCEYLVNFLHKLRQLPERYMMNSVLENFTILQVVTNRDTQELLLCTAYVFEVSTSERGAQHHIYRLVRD
Test [3] concerns the target TEAD3 YAP50-100 (Homo sapiens, UniProt Q99594). Put plainly: TEAD3-YAP HTRF (TR-FRET) protein-protein interaction assay. To be noted: TEAD3, YAP peptide 50-100, HTRF; for EC50: read-out: TEAD3 YAP50-100 HTRF combined: EC50. An outline of the steps:
as §1

The target of test [4] is TEAD4 YAP50-100 (Homo sapiens, UniProt Q15561). In words: TEAD4-YAP HTRF (TR-FRET) protein-protein interaction assay. To be noted: TEAD4, YAP peptide 50-100, HTRF; for EC50: read-out: TEAD4 YAP50-100 HTRF combined: EC50. An outline of the steps:
as §1

Test [5] has as its target TEAD1 TAZ (amino acids 13-57) (Homo sapiens, UniProt P28347). Put plainly: TEAD1-TAZ HTRF (TR-FRET) protein-protein interaction assay. As to conditions: for TEAD1 TAZ HTRF combined: Max % Inhibition: TEAD1, TAZ peptide; for EC50: TEAD1-TAZ HTRF, TR-FRET 665 nm/615 nm, read-out: TEAD1 TAZ HTRF combined: EC50. In outline: as §1
Test [6] addresses TEAD2 TAZ (amino acids 13-57) (Homo sapiens, UniProt Q15562). In words: TEAD2-TAZ HTRF (TR-FRET) protein-protein interaction assay. To be noted: for TEAD2 TAZ HTRF combined: Max % Inhibition: TEAD2, TAZ peptide; for EC50: TEAD2-TAZ HTRF, TR-FRET 665 nm/615 nm, read-out: TEAD2 TAZ HTRF combined: EC50. In outline: as §1
Test [7] deals with TEAD3 TAZ (amino acids 13-57) (Homo sapiens, UniProt Q99594). Put plainly: TEAD3-TAZ HTRF (TR-FRET) protein-protein interaction assay. To be noted: for TEAD3 TAZ HTRF combined: Max % Inhibition: TEAD3, TAZ peptide; for EC50: TEAD3-TAZ HTRF, TR-FRET 665 nm/615 nm, read-out: TEAD3 TAZ HTRF combined: EC50. An outline of the steps: as §1
Sequence of TEAD3 TAZ (amino acids 13-57) (Q99594 173-435 limits assumed): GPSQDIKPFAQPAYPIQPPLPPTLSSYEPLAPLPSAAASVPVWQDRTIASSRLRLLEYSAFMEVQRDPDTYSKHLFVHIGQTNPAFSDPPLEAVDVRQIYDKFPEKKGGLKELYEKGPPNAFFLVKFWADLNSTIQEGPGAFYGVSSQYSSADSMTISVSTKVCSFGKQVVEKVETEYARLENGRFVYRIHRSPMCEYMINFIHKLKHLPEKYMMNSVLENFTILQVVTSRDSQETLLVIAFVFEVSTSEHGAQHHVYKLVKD
Test [8] deals with TEAD4 TAZ (amino acids 13-57) (Homo sapiens, UniProt Q15561). In words: TEAD4-TAZ HTRF (TR-FRET) protein-protein interaction assay. As to conditions: for TEAD4 TAZ HTRF combined: Max % Inhibition: TEAD4, TAZ peptide; for EC50: TEAD4-TAZ HTRF, TR-FRET 665 nm/615 nm, read-out: TEAD4 TAZ HTRF combined: EC50. An outline of the steps:
as §1

The structures appear in SMILES notation.

Sequence of TEAD3 YAP50-100 (Q99594 173-435 limits assumed): as above
Sequence of TEAD4 YAP50-100 (Q15561 217-434 limits assumed): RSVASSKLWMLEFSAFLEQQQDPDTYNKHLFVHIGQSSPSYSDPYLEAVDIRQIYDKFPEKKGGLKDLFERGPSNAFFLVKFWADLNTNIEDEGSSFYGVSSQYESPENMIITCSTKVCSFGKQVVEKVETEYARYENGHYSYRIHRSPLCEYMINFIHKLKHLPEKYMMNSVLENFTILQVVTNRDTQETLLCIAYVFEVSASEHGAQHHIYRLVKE
Sequence of TEAD4 TAZ (amino acids 13-57) (Q15561 217-434 limits assumed): as above
Sequence of TEAD1 YAP50-100 (P28347 167-426 limits assumed): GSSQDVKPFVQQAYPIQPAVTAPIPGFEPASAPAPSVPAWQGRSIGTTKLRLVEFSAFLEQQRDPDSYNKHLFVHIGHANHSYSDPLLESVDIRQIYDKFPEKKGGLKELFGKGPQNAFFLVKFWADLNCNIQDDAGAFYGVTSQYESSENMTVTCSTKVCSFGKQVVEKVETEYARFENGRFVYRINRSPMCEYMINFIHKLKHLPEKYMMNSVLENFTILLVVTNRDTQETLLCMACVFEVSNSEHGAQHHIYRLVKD
Sequence of TEAD1 TAZ (amino acids 13-57) (P28347 167-426 limits assumed): as above
Sequence of TEAD2 TAZ (amino acids 13-57) (Q15562 217-447): as the sequence (Q15562 217-447) above

With `Cc1nccnc1-c1nn2c(=O)cc(-c3ccc(C4CCC(F)(F)CC4)cc3)[nH]c2c1C(=O)N1CC(CF)C1` [Compound 55, 5-(4-(4,4-Difluorocyclohexyl)phenyl)-3-(3-(fluoromethyl)azetidine-1-carbonyl)-2-(3-methylpyrazin-2-yl)pyrazolo[1,5-a]pyrimidin-7(4H)-one], in test [1], the “TEAD1 YAP50-100 HTRF combined: Max % Inhibition” value was 72.0% and the 50% effective concentration (EC50) amounted to 260 nM. Also, in test [2], the “TEAD2 YAP50-100 HTRF combined: Max % Inhibition” value stood at 56.5% and the EC50 turned out to be 60 nM. In addition, in test [3], the “TEAD3 YAP50-100 HTRF combined: Max % Inhibition” value is given as 62.0% and the half-maximal effective concentration (EC50) is 200 nM. Besides, in test [4], the “TEAD4 YAP50-100 HTRF combined: Max % Inhibition” value is recorded as 44.5% and the EC50 was found to be 140 nM. In test [5], the “TEAD1 TAZ HTRF combined: Max % Inhibition” value is recorded as 67.0% and the EC50 was found to be 240 nM. Further, in test [6], the “TEAD2 TAZ HTRF combined: Max % Inhibition” value came to 60.0% and the EC50 came out at 50 nM. For the same compound, in test [7], the “TEAD3 TAZ HTRF combined: Max % Inhibition” value is 55.0% and the EC50 stood at 210 nM. Further, in test [8], the “TEAD4 TAZ HTRF combined: Max % Inhibition” value is reported as 39.5% and the EC50 was 110 nM.

On to `Cc1nccnc1-c1nn2c(=O)cc(-c3ccc(C(F)(F)C4CCCC4)cc3)[nH]c2c1C(=O)N1CC(CF)C1` [Compound 56, 5-(4-(Cyclopentyldifluoromethyl)phenyl)-3-(3-(fluoromethyl)azetidine-1-carbonyl)-2-(3-methylpyrazin-2-yl)pyrazolo[1,5-a]pyrimidin-7(4H)-one], for which, in test [1], the “TEAD1 YAP50-100 HTRF combined: Max % Inhibition” value worked out at 57.0% and the EC50 was found to be 60 nM. For the same compound, in test [2], the “TEAD2 YAP50-100 HTRF combined: Max % Inhibition” value came out at 61.0% and the 50% effective concentration (EC50) turned out to be 10 nM. In addition, in test [3], the “TEAD3 YAP50-100 HTRF combined: Max % Inhibition” value was determined as 49.5% and the concentration for a half-maximal effect (EC50) amounted to 100 nM. Further, in test [4], the “TEAD4 YAP50-100 HTRF combined: Max % Inhibition” value is given as 33.0% and the EC50 was 30 nM. Moreover, in test [5], the “TEAD1 TAZ HTRF combined: Max % Inhibition” value is recorded as 57.0% and the EC50 came out at 70 nM. Also, in test [6], the “TEAD2 TAZ HTRF combined: Max % Inhibition” value came out at 60.0% and the EC50 worked out at 10 nM. Further, in test [7], the “TEAD3 TAZ HTRF combined: Max % Inhibition” value is 43.0% and the EC50 is 110 nM. For the same compound, in test [8], the “TEAD4 TAZ HTRF combined: Max % Inhibition” value came out at 35.0% and the EC50 amounted to 20 nM.

`O=C(c1c(-c2ncccn2)nn2c(=O)cc(-c3ccc(C4(C5CCCC5)CC4)cc3)[nH]c12)N1CC(CF)C1` [Compound 57, 5-(4-(1-Cyclopentylcyclopropyl)phenyl)-3-(3-(fluoromethyl)azetidine-1-carbonyl)-2-(pyrimidin-2-yl)pyrazolo[1,5-a]pyrimidin-7(4H)-one]: in test [1], the “TEAD1 YAP50-100 HTRF combined: Max % Inhibition” value was determined as 56.0% and the EC50 came to 80 nM. Also, in test [2], the “TEAD2 YAP50-100 HTRF combined: Max % Inhibition” value amounted to 51.0% and the 50% effective concentration (EC50) was found to be 20 nM. Moreover, in test [3], the “TEAD3 YAP50-100 HTRF combined: Max % Inhibition” value was found to be 53.0% and the EC50 amounted to 100 nM. Also, in test [4], the “TEAD4 YAP50-100 HTRF combined: Max % Inhibition” value is on record as 35.0% and the EC50 amounted to 70 nM. Besides, in test [5], the “TEAD1 TAZ HTRF combined: Max % Inhibition” value came to 46.5% and the EC50 stood at 70 nM. Also, in test [6], the “TEAD2 TAZ HTRF combined: Max % Inhibition” value was 53.5% and the EC50 was determined as 10 nM. In test [7], the “TEAD3 TAZ HTRF combined: Max % Inhibition” value turned out to be 50.5% and the half-maximal effective concentration (EC50) worked out at 90 nM. Moreover, in test [8], the “TEAD4 TAZ HTRF combined: Max % Inhibition” value turned out to be 54.5% and the EC50 is 60 nM.

On to `CCCCc1ccc(-c2cc(=O)n3nc(-c4nccnc4C)c(C(=O)N4CC(CF)C4)c3[nH]2)cc1` [Compound 58, 5-(4-Butylphenyl)-3-(3-(fluoromethyl)azetidine-1-carbonyl)-2-(3-methylpyrazin-2-yl)pyrazolo[1,5-a]pyrimidin-7(4H)-one], for which, in test [1], the “TEAD1 YAP50-100 HTRF combined: Max % Inhibition” value is 71.0% and the half-maximal effective concentration (EC50) stood at 40 nM. In test [2], the “TEAD2 YAP50-100 HTRF combined: Max % Inhibition” value is on record as 63.0% and the EC50 was 10 nM. Further, in test [3], the “TEAD3 YAP50-100 HTRF combined: Max % Inhibition” value amounted to 64.5% and the concentration giving a half-maximal response (EC50) amounted to 90 nM. Moreover, in test [4], the “TEAD4 YAP50-100 HTRF combined: Max % Inhibition” value is given as 59.0% and the 50% effective concentration (EC50) was 180 nM. For the same compound, in test [5], the “TEAD1 TAZ HTRF combined: Max % Inhibition” value came to 70.5% and the EC50 was 40 nM. Moreover, in test [6], the “TEAD2 TAZ HTRF combined: Max % Inhibition” value is 66.5% and the concentration for a half-maximal effect (EC50) was found to be 10 nM. Besides, in test [7], the “TEAD3 TAZ HTRF combined: Max % Inhibition” value came out at 58.5% and the EC50 worked out at 100 nM. Further, in test [8], the “TEAD4 TAZ HTRF combined: Max % Inhibition” value came to 68.5% and the concentration giving a half-maximal response (EC50) was 140 nM.

Take `Cc1nccnc1-c1nn2c(=O)cc(-c3ccc(C4(F)CCCCC4)cc3)[nH]c2c1C(=O)N1CC(CF)C1` [Compound 59, 5-(4-(1-Fluorocyclohexyl)phenyl)-3-(3-(fluoromethyl)azetidine-1-carbonyl)-2-(3-methylpyrazin-2-yl)pyrazolo[1,5-a]pyrimidin-7(4H)-one]: in test [1], the “TEAD1 YAP50-100 HTRF combined: Max % Inhibition” value came to 68.0% and the EC50 is 160 nM. Moreover, in test [2], the “TEAD2 YAP50-100 HTRF combined: Max % Inhibition” value came to 61.5% and the EC50 was determined as 30 nM. In test [3], the “TEAD3 YAP50-100 HTRF combined: Max % Inhibition” value is recorded as 65.5% and the half-maximal effective concentration (EC50) was found to be 290 nM. Besides, in test [4], the “TEAD4 YAP50-100 HTRF combined: Max % Inhibition” value was found to be 40.0% and the EC50 worked out at 180 nM. In test [5], the “TEAD1 TAZ HTRF combined: Max % Inhibition” value amounted to 65.5% and the EC50 was 160 nM. For the same compound, in test [6], the “TEAD2 TAZ HTRF combined: Max % Inhibition” value amounted to 61.0% and the EC50 was determined as 30 nM. Besides, in test [7], the “TEAD3 TAZ HTRF combined: Max % Inhibition” value was 59.0% and the EC50 turned out to be 340 nM. For the same compound, in test [8], the “TEAD4 TAZ HTRF combined: Max % Inhibition” value is recorded as 42.5% and the half-maximal effective concentration (EC50) stood at 180 nM.

For `Cc1nccnc1-c1nn2c(=O)cc(-c3ccc(-c4ccccc4)cc3)[nH]c2c1C(=O)N1CC(CF)C1` [Compound 60, 5-([1,1′-Biphenyl]-4-yl)-3-(3-(fluoromethyl)azetidine-1-carbonyl)-2-(3-methylpyrazin-2-yl)pyrazolo[1,5-a]pyrimidin-7(4H)-one], in test [1], the “TEAD1 YAP50-100 HTRF combined: Max % Inhibition” value is reported as 80.0% and the concentration for a half-maximal effect (EC50) stood at 30 nM. Also, in test [2], the “TEAD2 YAP50-100 HTRF combined: Max % Inhibition” value came out at 66.5% and the 50% effective concentration (EC50) was 10 nM. Moreover, in test [3], the “TEAD3 YAP50-100 HTRF combined: Max % Inhibition” value was determined as 78.0% and the concentration for a half-maximal effect (EC50) came out at 200 nM. In addition, in test [4], the “TEAD4 YAP50-100 HTRF combined: Max % Inhibition” value is reported as 60.0% and the EC50 came out at 610 nM. For the same compound, in test [5], the “TEAD1 TAZ HTRF combined: Max % Inhibition” value was found to be 78.5% and the EC50 was 40 nM. In test [6], the “TEAD2 TAZ HTRF combined: Max % Inhibition” value was 66.5% and the EC50 worked out at 10 nM. In test [7], the “TEAD3 TAZ HTRF combined: Max % Inhibition” value was determined as 74.0% and the 50% effective concentration (EC50) was 220 nM. In addition, in test [8], the “TEAD4 TAZ HTRF combined: Max % Inhibition” value worked out at 64.0% and the EC50 amounted to 510 nM.
